Common to all, as to assay: DSF 100 kinase selectivity screen;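 also: compound tested at 20 µM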
Holding throughout (assay type): binding

The target in experiment [1] is T1, ~100 representative kinases (Homo sapiens, UniProt Q99986).
T1 construct: Recombinant protein kinase domains with a concentration of 2 μM
T1 sequence (Q99986 1-396): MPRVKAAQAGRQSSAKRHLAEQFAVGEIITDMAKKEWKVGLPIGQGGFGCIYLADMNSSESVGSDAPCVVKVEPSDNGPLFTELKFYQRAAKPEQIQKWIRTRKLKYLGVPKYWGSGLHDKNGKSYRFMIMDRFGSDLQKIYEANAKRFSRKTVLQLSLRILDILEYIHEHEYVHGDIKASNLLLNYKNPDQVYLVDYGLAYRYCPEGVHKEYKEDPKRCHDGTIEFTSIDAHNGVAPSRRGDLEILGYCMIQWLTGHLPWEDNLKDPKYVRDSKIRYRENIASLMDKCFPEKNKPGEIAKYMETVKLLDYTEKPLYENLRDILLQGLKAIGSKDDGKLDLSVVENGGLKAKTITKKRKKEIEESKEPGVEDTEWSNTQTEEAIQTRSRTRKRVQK
The settings on record: Protein VRK1; DSF; average of three replicates. Summed up: (§1)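 Each kinase domain, at 2 μM, is mixed with 20 μM test compound and SYPRO Orange in Hepes (20 mM, pH 7.5) with 500 mM NaCl. Temperature is then raised at 3°C/min and fluorescence-monitored unfolding yields the melting temperature change, ΔTm in degrees Celsius.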

The target of experiment [2] is T2, ~100 representative kinases (Homo sapiens, UniProt P68400).
T2 construct: Recombinant protein kinase domains with a concentration of 2 μM
T2 sequence (P68400 whole entry, the tested form may be a part): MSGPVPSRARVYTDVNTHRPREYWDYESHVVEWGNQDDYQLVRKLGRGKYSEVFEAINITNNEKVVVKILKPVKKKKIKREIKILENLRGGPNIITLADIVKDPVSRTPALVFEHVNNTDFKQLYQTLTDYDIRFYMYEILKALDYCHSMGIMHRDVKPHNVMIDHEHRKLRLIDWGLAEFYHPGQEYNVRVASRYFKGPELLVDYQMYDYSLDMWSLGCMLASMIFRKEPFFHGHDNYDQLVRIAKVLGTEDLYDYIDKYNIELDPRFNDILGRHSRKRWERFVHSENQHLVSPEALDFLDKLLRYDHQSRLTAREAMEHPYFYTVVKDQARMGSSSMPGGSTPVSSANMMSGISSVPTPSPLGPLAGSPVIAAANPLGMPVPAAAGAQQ
The settings on record: Protein CK2A1; average of three replicates. Summed up:
as §1

Experiment [3] addresses T3, ~100 representative kinases (Homo sapiens, UniProt Q9Y243).
T3 construct: Recombinant protein kinase domains with a concentration of 2 μM
Conditions: Protein AKT3; average of three replicates. The method in brief: as §1

The target in experiment [4] is T4, ~100 representative kinases (Homo sapiens, UniProt P34947).
T4 construct: Recombinant protein kinase domains with a concentration of 2 μM
T4 sequence (P34947 whole entry, the tested form may be a part): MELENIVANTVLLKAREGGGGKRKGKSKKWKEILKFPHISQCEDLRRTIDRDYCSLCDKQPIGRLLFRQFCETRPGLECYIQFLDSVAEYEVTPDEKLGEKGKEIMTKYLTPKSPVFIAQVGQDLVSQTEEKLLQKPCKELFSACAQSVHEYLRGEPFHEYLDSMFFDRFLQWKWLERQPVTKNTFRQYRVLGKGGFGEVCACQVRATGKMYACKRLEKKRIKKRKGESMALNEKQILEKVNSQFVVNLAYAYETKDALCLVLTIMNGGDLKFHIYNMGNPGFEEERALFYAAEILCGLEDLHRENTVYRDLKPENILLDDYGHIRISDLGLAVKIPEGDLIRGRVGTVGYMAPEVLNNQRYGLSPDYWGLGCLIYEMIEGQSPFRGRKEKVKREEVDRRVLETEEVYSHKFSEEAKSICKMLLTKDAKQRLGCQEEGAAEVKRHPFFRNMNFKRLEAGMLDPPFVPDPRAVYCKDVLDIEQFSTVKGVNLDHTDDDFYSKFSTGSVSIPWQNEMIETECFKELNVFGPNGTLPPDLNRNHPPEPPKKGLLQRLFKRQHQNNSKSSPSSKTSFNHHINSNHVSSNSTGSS
Conditions: protein GPRK5; average of three replicates. The method in brief:
as §1

The target of experiment [5] is T5, ~100 representative kinases (Homo sapiens, UniProt Q12866).
T5 construct: Recombinant protein kinase domains with a concentration of 2 μM
T5 sequence (Q12866 21-999): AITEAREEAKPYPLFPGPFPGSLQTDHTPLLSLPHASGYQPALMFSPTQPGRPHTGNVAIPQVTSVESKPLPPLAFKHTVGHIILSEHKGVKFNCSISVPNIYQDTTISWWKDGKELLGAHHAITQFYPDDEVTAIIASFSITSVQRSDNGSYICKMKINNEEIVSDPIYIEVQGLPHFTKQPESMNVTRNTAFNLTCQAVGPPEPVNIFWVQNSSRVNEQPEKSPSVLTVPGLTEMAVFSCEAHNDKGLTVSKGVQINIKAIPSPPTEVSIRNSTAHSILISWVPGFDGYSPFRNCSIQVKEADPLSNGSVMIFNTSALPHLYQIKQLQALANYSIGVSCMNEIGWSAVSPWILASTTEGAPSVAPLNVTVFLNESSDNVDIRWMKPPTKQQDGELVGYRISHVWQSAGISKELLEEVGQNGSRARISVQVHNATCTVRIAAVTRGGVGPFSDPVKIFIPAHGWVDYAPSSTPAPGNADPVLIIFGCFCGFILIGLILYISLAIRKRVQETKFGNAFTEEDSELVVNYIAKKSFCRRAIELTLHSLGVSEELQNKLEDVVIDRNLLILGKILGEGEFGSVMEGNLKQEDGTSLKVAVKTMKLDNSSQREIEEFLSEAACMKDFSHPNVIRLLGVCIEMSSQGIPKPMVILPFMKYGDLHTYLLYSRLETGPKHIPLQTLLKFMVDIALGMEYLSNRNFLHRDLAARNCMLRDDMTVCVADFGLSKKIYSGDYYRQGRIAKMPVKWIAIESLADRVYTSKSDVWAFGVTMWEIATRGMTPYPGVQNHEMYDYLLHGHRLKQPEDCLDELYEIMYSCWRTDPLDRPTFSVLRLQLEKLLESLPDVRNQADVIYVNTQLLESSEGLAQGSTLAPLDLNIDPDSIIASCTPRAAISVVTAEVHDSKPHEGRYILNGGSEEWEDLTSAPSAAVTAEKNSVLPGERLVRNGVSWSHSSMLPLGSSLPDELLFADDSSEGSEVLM
The settings on record: protein MERTK; average of three replicates. The method in brief:
as §1

Experiment [6] has as its target T6, ~100 representative kinases (Homo sapiens, UniProt Q9H2G2).
T6 construct: Recombinant protein kinase domains with a concentration of 2 μM
The settings on record: Protein SLK; DSF; average of three replicates. Summed up: as §1

SMILES strings stand for the structures.

From article PMC12136037, “Type II kinase inhibitors that target Parkinson’s disease–associated LRRK2” (Science Advances, 2025) come the findings set out here.

T6 sequence (Q9H2G2 whole entry, the tested form may be a part): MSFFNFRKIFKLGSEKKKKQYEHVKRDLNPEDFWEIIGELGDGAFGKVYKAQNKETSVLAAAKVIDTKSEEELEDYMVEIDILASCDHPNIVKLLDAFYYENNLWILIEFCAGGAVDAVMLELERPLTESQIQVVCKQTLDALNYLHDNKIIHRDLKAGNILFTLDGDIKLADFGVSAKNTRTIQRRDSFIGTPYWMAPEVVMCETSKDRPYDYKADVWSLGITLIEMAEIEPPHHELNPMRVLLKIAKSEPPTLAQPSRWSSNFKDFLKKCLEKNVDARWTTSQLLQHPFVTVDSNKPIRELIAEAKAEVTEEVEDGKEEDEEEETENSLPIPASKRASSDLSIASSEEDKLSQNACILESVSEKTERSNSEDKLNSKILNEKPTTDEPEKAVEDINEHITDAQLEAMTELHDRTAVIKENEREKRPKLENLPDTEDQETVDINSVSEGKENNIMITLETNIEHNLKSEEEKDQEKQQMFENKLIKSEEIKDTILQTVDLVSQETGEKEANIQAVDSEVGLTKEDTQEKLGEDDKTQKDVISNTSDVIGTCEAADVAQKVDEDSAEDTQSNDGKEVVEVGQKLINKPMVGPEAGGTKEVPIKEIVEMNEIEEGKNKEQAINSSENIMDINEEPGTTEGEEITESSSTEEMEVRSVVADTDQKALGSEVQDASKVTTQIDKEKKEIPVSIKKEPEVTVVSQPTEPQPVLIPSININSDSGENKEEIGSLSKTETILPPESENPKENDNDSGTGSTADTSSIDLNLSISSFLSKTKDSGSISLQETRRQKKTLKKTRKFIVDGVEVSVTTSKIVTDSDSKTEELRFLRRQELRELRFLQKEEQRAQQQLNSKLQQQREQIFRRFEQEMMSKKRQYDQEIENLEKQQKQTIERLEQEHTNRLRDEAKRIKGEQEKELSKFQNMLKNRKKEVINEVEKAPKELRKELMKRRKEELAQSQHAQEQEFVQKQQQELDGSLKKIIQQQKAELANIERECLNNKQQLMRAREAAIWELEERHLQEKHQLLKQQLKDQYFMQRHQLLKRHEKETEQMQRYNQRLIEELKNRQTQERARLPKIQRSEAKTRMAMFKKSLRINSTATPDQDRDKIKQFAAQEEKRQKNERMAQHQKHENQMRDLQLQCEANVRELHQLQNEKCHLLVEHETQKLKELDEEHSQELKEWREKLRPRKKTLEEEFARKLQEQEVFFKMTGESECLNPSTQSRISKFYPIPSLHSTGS
T3 sequence (Q9Y243 whole entry, the tested form may be a part): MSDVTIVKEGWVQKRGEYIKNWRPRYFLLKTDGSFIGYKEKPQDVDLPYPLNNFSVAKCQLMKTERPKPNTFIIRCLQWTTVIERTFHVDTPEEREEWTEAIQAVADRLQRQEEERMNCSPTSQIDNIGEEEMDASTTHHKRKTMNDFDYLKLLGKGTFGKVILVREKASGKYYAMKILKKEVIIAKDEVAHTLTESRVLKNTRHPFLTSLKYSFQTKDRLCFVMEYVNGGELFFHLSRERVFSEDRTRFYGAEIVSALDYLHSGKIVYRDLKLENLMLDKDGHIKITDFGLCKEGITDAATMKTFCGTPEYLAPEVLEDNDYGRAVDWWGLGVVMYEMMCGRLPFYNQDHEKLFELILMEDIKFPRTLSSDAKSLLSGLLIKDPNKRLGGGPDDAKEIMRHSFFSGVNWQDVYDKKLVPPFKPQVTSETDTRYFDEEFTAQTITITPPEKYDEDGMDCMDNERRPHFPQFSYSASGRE

On to `Cc1ccc(C(=O)Nc2ccc(CN3CCN(C)CC3)c(C(F)(F)F)c2)cc1C#Cc1c[nH]c2ncnc(N3CCOCC3)c12` [Compound 1], for which the dTm is recorded as -0.0464 K in experiment [1]; 2.53 K in experiment [2]; -0.0373 K in experiment [3]; 0.19 K in experiment [4]; 3.23 K in experiment [5].

Consider `O=C(Nc1ccc(F)cc1)C1(C(=O)Nc2cccc(-c3c[nH]c4ncnc(N5CCOCC5)c34)c2)CC1` [Compound 2], for which the dTm was 0.75 K in experiment [1]; 0.00 K in experiment [2]; 0.65 K in experiment [3]; -0.82 K in experiment [4]; 6.64 K in experiment [6]; 2.38 K in experiment [5].

With `O=C(Nc1cccc(-c2c[nH]c3ncnc(N4CCOCC4)c23)c1)c1cccn(-c2ccc(F)cc2)c1=O` [Compound 4], the dTm is given as 1.12 K in experiment [1]; 1.35 K in experiment [2]; -0.17 K in experiment [3]; 0.55 K in experiment [4]; 6.46 K in experiment [6]; 5.74 K in experiment [5].

Consider `Cc1cc(NC(=O)C2(C(=O)Nc3ccc(F)cc3)CC2)cc(-c2c[nH]c3ncnc(N4CCOCC4)c23)c1` [Compound 6], for which the dTm in experiment [1] is reported as 0.70 K; in experiment [2], 0.12 K; in experiment [3] it was -0.13 K; in experiment [4], 0.0071 K; in experiment [6], 4.64 K; in experiment [5] it was 1.86 K.

With `O=C(Nc1cccc(-c2c[nH]c3ncnc(N4CCOCC4)c23)c1)C1(C(=O)Nc2cccc3c2CCC3)CC1` [Compound 11], the dTm in experiment [1] is recorded as 0.56 K; in experiment [2] it was -1.70 K; in experiment [3], -0.39 K; in experiment [4], -0.20 K; in experiment [6], 0.75 K; in experiment [5], 2.34 K.

For `O=C(Nc1ccccc1)C1(C(=O)Nc2cccc(-c3c[nH]c4ncnc(N5CCOCC5)c34)c2)CC1` [Compound 12], the dTm in experiment [1] is reported as 0.69 K; in experiment [2] it was 0.00 K; in experiment [3], 0.16 K; in experiment [4] it was 0.86 K; in experiment [6] it was 5.53 K; in experiment [5] it was 2.64 K.

Regarding `O=C(Nc1ccc(Cl)cc1)C1(C(=O)Nc2cccc(-c3c[nH]c4ncnc(N5CCOCC5)c34)c2)CC1` [Compound 13], the dTm is 2.20 K in experiment [1]; 0.00 K in experiment [2]; 0.45 K in experiment [3]; 1.38 K in experiment [4]; 7.45 K in experiment [6]; 3.45 K in experiment [5].

For the compound `Cc1ccc(NC(=O)C2(C(=O)Nc3cccc(-c4c[nH]c5ncnc(N6CCOCC6)c45)c3)CC2)cc1` [Compound 14], the dTm in experiment [1] is listed as 0.91 K; in experiment [2] it was 1.79 K; in experiment [3], 0.32 K; in experiment [4], 0.90 K; in experiment [6], 5.25 K; in experiment [5], 0.92 K.

As for `CCc1ccc(NC(=O)C2(C(=O)Nc3cccc(-c4c[nH]c5ncnc(N6CCOCC6)c45)c3)CC2)cc1` [Compound 15], the dTm in experiment [1] is 1.12 K; in experiment [2], 2.19 K; in experiment [3], -0.80 K; in experiment [4], 1.27 K; in experiment [6] it was 5.04 K; in experiment [5], 0.37 K.

For the compound `Cc1ccc(C(=O)Nc2ccc(CN3CCN(C)CC3)c(C(F)(F)F)c2)cc1C#Cc1cnc2cccnn12` [Ponatinib, reference compound], in experiment [5], the dTm is listed as 4.58 K.

As to `CNC(=O)c1cc(Oc2ccc(NC(=O)Nc3cc(C(C)(C)C)nn3-c3ccc4ncccc4c3)c(F)c2)ccn1` [Rebastinib, reference compound], the dTm in experiment [1] is given as 0.52 K; in experiment [3], -0.41 K; in experiment [4] it was 0.59 K; in experiment [6], 14.21 K.

For `CN[C@@H]1C[C@H]2O[C@@](C)([C@@H]1OC)n1c3ccccc3c3c4c(c5c6ccccc6n2c5c31)C(=O)NC4` [Staurosporine], the values for the dTm in experiment [4] and in experiment [5] were 7.02 K and 6.40 K, respectively.
